Legend:
[1] = Toxicity in Crl:CD Sprague-Dawley rat assessed as alkaline phosphatase level in blood at 100 mg/kg, po administered daily for 14 days (reference value: 1340+/-199 U/L); type: organism-based; settings: in vivo, 336 h, time 14 day
[2] = Toxicity in Crl:CD Sprague-Dawley rat assessed as decrease in body weight at 100 mg/kg, po administered daily for 14 days; type: organism-based; settings: in vivo, 336 h, time 14 day
[3] = Toxicity in Crl:CD Sprague-Dawley rat assessed as atrophy of spleen at 100 mg/kg, po administered daily for 14 days by hematoxylin and eosin staining based analysis; type: organism-based; settings: in vivo, 336 h, time 14 day
[4] = Toxicity in Crl:CD Sprague-Dawley rat assessed as basophil count in blood at 100 mg/kg, po administered daily for 14 days (reference value: 0.023+/-0.018 10^3/uL); type: organism-based; settings: in vivo, 336 h, time 14 day
[5] = Toxicity in Crl:CD Sprague-Dawley rat assessed as decrease of lymphocytes in thymus cortex at 100 mg/kg, po administered daily for 14 days by hematoxylin and eosin staining based analysis; type: organism-based; settings: in vivo, 336 h, time 14 day
[6] = Cmax in Crl:CD Sprague-Dawley rat at 100 mg/kg, po administered daily for 14 days by LC/MS/MS analysis; type: ADME, organism-based; settings: in vivo, 336 h, time 14 day
[7] = biological target: Interleukin-1 receptor-associated kinase 1 (Homo sapiens) (UniProt P51617); test: Inhibition of N-terminal GST-fused truncated human IRAK1 (194 to 712 residues) expressed in baculovirus expression system using SRPKtide as substrate at 1 uM in presence of ATP by IMAP assay
[8] = Mean AUC (0-24 hrs) in Crl:CD Sprague-Dawley rat at 100 mg/kg, po by LC/MS/MS analysis; type: ADME, organism-based; settings: in vivo
[9] = Toxicity in Crl:CD Sprague-Dawley rat assessed as inorganic phosphorus level in blood at 100 mg/kg, po administered daily for 14 days (reference value: 6.02+/-0.628 mg/dL); type: organism-based; settings: in vivo, 336 h, time 14 day
[10] = Toxicity in Crl:CD Sprague-Dawley rat assessed as red blood cell count in blood at 100 mg/kg, po administered daily for 14 days (reference value: 6.71+/-0.386 10^6/uL); type: organism-based; settings: in vivo, 336 h, time 14 day
HCC1806 = test: Antitumor activity against human HCC1806 cells assessed as cell growth inhibition treated for 10 to 15 days; type: functional; settings: time 10-15 day
[11] = biological target: DNA (cytosine-5)-methyltransferase 3A (Homo sapiens, UniProt Q9Y6K1); test: Inhibition of human DNMT3a using lambda DNA and [3H]SAM as substrate incubated for 30 mins to 1 hr by HotSpot kinase assay
HCC1599 = test: Antitumor activity against human HCC1599 cells assessed as cell growth inhibition treated for 10 to 15 days; type: functional; settings: time 10-15 day
HCC70 = test: Antitumor activity against human HCC70 cells assessed as cell growth inhibition treated for 10 to 15 days; type: functional; settings: time 10-15 day
[12] = biological target: CDK7/Cyclin H/MNAT1 (Homo sapiens) (UniProt P51946+P50613+P51948); test: Inhibition of N-terminal GST-tagged full length human CDK7 (1 to 346 residues)/human CyclinH (1 to 323 residues)/human MAT1 (1 to 309 residues) expressed in baculovirus-infected Sf21 cells using CTD3 peptide as substrate at 1 uM in presence of ATP by Mobility shift assay
[13] = biological target: Serine/threonine-protein kinase D2 (Homo sapiens) (UniProt Q9BZL6); test: Inhibition of N-terminal GST-fused full length human PKD2 (1 to 878 residues) expressed in baculovirus expression system using GS peptide as substrate at 1 uM in presence of ATP by Mobility shift assay
[14] = biological target: Histone-lysine N-methyltransferase 2B (Homo sapiens, UniProt Q9UMN6); test: Inhibition of human MLL4 using Core Histone and [3H]SAM as substrate incubated for 30 mins to 1 hr by HotSpot kinase assay
[15] = Antitumor activity against human BCP-1 cells assessed as cell growth inhibition treated for 10 to 15 days; type: functional; settings: time 10-15 day
HT1197 = test: Antitumor activity against human HT1197 cells assessed as cell growth inhibition treated for 10 to 15 days; type: functional; settings: time 10-15 day
HPAC = test: Antitumor activity against human HPAC cells assessed as cell growth inhibition treated for 10 to 15 days; type: functional; settings: time 10-15 day
HCC1395 = test: Antitumor activity against human HCC1395 cells assessed as cell growth inhibition treated for 10 to 15 days; type: functional; settings: time 10-15 day
TOV112D = test: Antitumor activity against human TOV112D cells assessed as cell growth inhibition treated for 10 to 15 days; type: functional; settings: time 10-15 day
[16] = biological target: Histone-lysine N-methyltransferase NSD2 (Homo sapiens, UniProt O96028, T1150A); test: Inhibition of human NSD2 T1150A mutant using Nucleosomes and [3H]SAM as substrate incubated for 30 mins to 1 hr by HotSpot kinase assay
P3HR-1 = test: Antitumor activity against human P3HR-1 cells assessed as cell growth inhibition treated for 10 to 15 days; type: functional; settings: time 10-15 day
SBC-5 = test: Antitumor activity against human SBC-5 cells assessed as cell growth inhibition treated for 10 to 15 days; type: functional; settings: time 10-15 day
HL-60 = test: Antitumor activity against human HL-60 cells assessed as cell growth inhibition treated for 10 to 15 days; type: functional; settings: time 10-15 day
MKN-7 = test: Antitumor activity against human MKN-7 cells assessed as cell growth inhibition treated for 10 to 15 days; type: functional; settings: time 10-15 day
[17] = biological target: Serine/threonine-protein kinase Sgk2 (Homo sapiens) (UniProt Q9HBY8); test: Inhibition of N-terminal GST-fused full length human SGK2 (1 to 367 residues) expressed in baculovirus expression system using SGKtide as substrate at 1 uM in presence of ATP by Mobility shift assay
VCaP = test: Antitumor activity against human VCaP cells assessed as cell growth inhibition treated for 10 to 15 days; type: functional; settings: time 10-15 day
MDA-MB-436 = test: Antitumor activity against human MDA-MB-436 cells assessed as cell growth inhibition treated for 10 to 15 days; type: functional; settings: time 10-15 day
SNU-398 = test: Antitumor activity against human SNU-398 cells assessed as cell growth inhibition treated for 10 to 15 days; type: functional; settings: time 10-15 day
NCI-N87 = test: Antitumor activity against human NCI-N87 cells assessed as cell growth inhibition treated for 10 to 15 days; type: functional; settings: time 10-15 day
MDA-MB-453 = test: Antitumor activity against human MDA-MB-453 cells assessed as cell growth inhibition treated for 10 to 15 days; type: functional; settings: time 10-15 day
SNU-423 = test: Antitumor activity against human SNU-423 cells assessed as cell growth inhibition treated for 10 to 15 days; type: functional; settings: time 10-15 day
OV-90 = test: Antitumor activity against human OV-90 cells assessed as cell growth inhibition treated for 10 to 15 days; type: functional; settings: time 10-15 day
HuT78 = test: Antitumor activity against human HuT78 cells assessed as cell growth inhibition treated for 10 to 15 days; type: functional; settings: time 10-15 day
[18] = Antitumor activity against human SNU-840 cells assessed as cell growth inhibition treated for 10 to 15 days; type: functional; settings: time 10-15 day
CA46 = test: Antitumor activity against human CA46 cells assessed as cell growth inhibition treated for 10 to 15 days; type: functional; settings: time 10-15 day
A204 = test: Antitumor activity against human A204 cells assessed as cell growth inhibition treated for 10 to 15 days; type: functional; settings: time 10-15 day

Sequence of Interleukin-1 receptor-associated kinase 1 (Homo sapiens) (P51617 whole entry, looked up, the tested form may be a part): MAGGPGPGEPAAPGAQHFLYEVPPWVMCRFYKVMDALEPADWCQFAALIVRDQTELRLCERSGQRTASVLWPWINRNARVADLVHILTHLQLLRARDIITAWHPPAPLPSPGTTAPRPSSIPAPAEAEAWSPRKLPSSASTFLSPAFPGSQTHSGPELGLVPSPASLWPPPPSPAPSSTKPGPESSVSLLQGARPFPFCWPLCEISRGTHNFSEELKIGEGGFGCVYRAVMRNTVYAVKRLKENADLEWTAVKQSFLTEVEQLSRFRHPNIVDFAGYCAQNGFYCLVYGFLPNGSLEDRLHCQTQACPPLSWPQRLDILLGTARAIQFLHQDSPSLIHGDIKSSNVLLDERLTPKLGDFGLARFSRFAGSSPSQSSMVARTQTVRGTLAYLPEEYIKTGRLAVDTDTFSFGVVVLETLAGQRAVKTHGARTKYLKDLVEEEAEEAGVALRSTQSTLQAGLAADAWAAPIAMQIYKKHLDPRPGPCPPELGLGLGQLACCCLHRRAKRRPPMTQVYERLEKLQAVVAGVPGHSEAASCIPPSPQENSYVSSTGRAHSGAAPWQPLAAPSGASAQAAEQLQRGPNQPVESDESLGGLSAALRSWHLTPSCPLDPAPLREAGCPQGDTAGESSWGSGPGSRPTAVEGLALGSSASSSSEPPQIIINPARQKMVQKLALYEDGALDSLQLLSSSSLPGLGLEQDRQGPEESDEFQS
Sequence of Histone-lysine N-methyltransferase 2B (Q9UMN6 whole entry): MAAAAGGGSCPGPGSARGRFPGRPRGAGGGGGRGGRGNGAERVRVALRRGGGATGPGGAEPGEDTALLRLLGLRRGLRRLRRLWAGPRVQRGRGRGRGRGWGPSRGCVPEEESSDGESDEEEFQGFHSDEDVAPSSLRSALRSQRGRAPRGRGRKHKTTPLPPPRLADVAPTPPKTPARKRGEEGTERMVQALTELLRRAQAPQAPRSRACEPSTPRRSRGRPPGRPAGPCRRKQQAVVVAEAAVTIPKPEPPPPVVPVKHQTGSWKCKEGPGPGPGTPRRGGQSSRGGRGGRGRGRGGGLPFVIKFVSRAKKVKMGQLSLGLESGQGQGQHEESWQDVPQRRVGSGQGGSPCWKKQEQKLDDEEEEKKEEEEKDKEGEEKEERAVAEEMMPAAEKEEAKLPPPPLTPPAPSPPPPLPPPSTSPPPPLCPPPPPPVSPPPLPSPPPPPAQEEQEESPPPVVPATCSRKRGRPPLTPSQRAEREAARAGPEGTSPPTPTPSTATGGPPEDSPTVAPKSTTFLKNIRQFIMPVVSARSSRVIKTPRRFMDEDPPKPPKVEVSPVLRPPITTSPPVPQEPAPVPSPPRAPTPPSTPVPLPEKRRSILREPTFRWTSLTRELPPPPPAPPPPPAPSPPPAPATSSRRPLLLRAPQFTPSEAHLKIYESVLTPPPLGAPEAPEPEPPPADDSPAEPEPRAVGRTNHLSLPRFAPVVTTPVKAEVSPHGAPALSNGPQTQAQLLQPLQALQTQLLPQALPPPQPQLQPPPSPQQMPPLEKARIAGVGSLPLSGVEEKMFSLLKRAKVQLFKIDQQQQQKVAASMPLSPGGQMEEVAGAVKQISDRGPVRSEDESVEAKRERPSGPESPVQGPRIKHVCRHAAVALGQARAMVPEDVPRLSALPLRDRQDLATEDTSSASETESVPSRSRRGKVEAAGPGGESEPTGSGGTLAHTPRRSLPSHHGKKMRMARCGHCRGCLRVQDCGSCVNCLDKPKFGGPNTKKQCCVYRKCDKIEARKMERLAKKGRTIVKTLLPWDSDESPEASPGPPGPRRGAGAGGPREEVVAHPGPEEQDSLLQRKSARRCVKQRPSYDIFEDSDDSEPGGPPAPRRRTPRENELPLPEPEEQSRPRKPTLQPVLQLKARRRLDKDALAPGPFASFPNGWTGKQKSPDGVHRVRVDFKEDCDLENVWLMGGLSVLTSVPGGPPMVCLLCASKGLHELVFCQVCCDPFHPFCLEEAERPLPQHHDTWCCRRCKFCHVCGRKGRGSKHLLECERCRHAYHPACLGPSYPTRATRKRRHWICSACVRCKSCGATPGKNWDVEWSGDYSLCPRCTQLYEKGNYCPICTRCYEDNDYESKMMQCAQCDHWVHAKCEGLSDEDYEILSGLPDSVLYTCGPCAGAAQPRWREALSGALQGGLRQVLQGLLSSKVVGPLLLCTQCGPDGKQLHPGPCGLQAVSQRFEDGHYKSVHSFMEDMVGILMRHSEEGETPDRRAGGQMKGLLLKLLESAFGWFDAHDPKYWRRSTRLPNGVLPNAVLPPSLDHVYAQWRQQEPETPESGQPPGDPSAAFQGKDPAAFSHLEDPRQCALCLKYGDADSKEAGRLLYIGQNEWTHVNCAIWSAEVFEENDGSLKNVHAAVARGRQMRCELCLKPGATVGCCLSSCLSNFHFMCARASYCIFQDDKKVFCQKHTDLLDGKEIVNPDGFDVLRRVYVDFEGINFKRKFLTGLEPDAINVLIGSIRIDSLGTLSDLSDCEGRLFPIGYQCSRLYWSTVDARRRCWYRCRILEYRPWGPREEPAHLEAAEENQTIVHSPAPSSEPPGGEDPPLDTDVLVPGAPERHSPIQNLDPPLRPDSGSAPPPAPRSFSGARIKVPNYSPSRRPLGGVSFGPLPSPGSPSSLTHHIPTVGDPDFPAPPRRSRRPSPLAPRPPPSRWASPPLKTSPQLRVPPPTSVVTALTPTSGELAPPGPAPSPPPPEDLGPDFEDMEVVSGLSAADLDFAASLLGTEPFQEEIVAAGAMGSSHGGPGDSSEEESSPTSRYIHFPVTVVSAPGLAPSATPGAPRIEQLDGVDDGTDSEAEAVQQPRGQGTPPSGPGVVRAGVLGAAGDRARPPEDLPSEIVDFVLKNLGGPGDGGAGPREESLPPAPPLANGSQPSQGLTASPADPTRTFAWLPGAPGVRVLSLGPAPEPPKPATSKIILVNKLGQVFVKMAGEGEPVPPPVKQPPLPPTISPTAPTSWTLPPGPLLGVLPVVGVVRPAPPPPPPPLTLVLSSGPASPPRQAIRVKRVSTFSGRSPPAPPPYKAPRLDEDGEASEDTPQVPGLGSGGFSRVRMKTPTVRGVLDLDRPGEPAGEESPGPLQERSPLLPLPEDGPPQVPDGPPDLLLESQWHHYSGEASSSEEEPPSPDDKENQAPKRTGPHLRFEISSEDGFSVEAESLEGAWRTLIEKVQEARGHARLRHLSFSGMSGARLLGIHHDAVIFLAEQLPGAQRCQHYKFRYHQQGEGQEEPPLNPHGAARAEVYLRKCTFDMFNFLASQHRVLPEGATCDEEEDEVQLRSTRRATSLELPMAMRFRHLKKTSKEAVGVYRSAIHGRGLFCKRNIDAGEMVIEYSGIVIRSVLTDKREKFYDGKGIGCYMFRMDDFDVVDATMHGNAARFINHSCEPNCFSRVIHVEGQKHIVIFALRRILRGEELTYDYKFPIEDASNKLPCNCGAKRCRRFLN
Sequence of Serine/threonine-protein kinase Sgk2 (Homo sapiens) (Q9HBY8 whole entry, the tested form may be a part): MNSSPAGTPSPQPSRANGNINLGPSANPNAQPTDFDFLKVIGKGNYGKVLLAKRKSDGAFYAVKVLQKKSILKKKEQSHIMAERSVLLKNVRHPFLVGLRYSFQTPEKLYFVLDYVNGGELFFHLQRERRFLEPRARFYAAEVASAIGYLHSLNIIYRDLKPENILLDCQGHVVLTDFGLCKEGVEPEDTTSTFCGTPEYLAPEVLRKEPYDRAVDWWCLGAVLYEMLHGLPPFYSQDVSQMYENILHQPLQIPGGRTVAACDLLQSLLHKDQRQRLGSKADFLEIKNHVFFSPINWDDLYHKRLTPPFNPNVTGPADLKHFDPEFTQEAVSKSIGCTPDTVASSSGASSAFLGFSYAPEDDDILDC
Sequence of DNA (cytosine-5)-methyltransferase 3A (Q9Y6K1 whole entry, looked up): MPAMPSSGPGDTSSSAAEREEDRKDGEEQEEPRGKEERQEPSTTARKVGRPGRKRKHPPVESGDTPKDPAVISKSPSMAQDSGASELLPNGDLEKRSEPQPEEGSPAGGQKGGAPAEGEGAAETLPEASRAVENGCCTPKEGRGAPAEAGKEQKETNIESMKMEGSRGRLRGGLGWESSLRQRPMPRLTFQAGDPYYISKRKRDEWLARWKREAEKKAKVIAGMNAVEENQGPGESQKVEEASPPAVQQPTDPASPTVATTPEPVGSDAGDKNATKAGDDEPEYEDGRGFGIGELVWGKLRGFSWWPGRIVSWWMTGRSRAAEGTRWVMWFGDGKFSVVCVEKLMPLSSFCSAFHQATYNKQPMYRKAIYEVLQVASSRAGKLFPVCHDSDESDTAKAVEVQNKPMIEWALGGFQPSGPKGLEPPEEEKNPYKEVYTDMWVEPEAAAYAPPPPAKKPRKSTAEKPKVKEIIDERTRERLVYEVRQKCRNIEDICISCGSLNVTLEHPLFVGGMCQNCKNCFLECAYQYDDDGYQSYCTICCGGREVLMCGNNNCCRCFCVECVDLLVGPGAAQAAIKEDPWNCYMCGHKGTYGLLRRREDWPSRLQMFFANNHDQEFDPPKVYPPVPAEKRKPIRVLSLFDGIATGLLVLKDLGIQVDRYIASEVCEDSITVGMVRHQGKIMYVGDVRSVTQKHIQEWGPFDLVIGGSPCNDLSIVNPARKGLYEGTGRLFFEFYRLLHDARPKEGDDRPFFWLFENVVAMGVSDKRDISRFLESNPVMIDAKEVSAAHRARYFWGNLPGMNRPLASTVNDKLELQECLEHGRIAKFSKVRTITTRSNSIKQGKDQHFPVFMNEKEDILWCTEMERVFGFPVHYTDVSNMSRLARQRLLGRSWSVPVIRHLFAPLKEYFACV

Compound: Cc1cc(C)c(CNC(=O)c2cc(Br)c3c(c2C)O[C@@](C)([C@H]2CC[C@H](N(C)C)CC2)O3)c(=O)[nH]1
- Activity [1]: 1120 U/L
- Activity [2]: Toxic
- Activity [3]: Toxic
- Activity [4]: 0.01 10^3 /uL
- Activity [5]: Toxic
- Cmax [6]: 2440 nM
- inhibition [7]: -4.5%
- AUC [8]: 25.2 µM·h
- Activity [9]: 5.97 mg/dL
- Activity [10]: 6.59 10^6 /uL

Compound: Cc1cc(C)c(CNC(=O)c2cc(Cl)c3c(c2C)O[C@@](C)([C@H]2CC[C@H](N(C)C)CC2)O3)c(=O)[nH]1 [VALEMETOSTAT]
- GI50 (HCC1806): > 1000 nM
- IC50 [11]: 100000 nM
- GI50 (HCC1599): > 1000 nM
- GI50 (HCC70): > 1000 nM
- inhibition [12]: -6.7%
- inhibition [13]: -4.7%
- IC50 [14]: 100000 nM
- GI50 [15]: > 1000 nM
- GI50 (HT1197): 13.1 nM
- GI50 (HPAC): > 1000 nM
- GI50 (HCC1395): > 1000 nM
- GI50 (TOV112D): 15.4 nM
- IC50 [16]: 100000 nM
- GI50 (P3HR-1): 14.3 nM
- GI50 (SBC-5): 22 nM
- GI50 (HL-60): > 1000 nM
- GI50 (MKN-7): > 1000 nM
- inhibition [17]: -9%
- GI50 (VCaP): 50.7 nM
- GI50 (MDA-MB-436): > 1000 nM
- GI50 (SNU-398): 2.07 nM
- GI50 (NCI-N87): 536 nM
- GI50 (MDA-MB-453): 124 nM
- GI50 (SNU-423): > 1000 nM
- GI50 (OV-90): > 1000 nM
- GI50 (HuT78): > 1000 nM
- GI50 [18]: > 1000 nM
- GI50 (CA46): 296 nM
- GI50 (A204): 29.2 nM

— ChEMBL document CHEMBL5647694, “Novel orally bioavailable EZH1/2 dual inhibitors with greater antitumor efficacy than an EZH2 selective inhibitor” (Cancer Sci, 2017)
